US20050272817A1, “Dermatological use and a dermatological preparation” (priority 2000, published 2005)

Key:
thyroid hormone activity = settings: background statement; cited from earlier work
psoriatic plaques [1] = assay: Additional embodiment: topical T3A or D-T4 with or without T4A on psoriatic plaques, 35 days; format: in vivo, human; settings: for effect on psoriatic rash (conclusions, in words): topically administered
Protocol: Simultaneous topical treatment of four untreated, typically scaling and demarcated dermatitic plaques (plaques 1-4) in a psoriatic patient was undertaken. Plaque 5 was left untreated for comparison.
The areas of the plaques at initiation of the treatment were as follows: plaque 1: 5.3 cm^2, plaque 2: 4.9 cm^2, plaque 3: 6.4 cm^2, plaque 4: 5.3 cm^2; plaque 5: 5.6 cm^2.
Triacana® cream containing 200 μg 3,5,3′-triiodothyroacetic acid, T3A, (triac, tiratricol) per gram.
Triacana® cream plus Locobase® unctuous cream containing 500 μg 3,3′,5,5′-tetraiodothyroacetic acid, T4A, per gram (University Pharmacy, Helsinki, Finland. Ex tempore-preparation).
Locobase® unctuous cream containing 2500 μg D-thyroxine, D-T4, per gram (University Pharmacy, Helsinki, Finland. Ex tempore-preparation).
Locobase® unctuous cream containing 2500 μg D-thyroxine, D-T4, per gram (University Pharmacy, Helsinki, Finland. Ex tempore-preparation) plus Locobase® unctuous cream containing 500 μg 3,3′,5,5′-tetraiodothyroacetic acid, T4A, per gram (University Pharmacy, Helsinki, Finland. Ex tempore-preparation).
Triacana® cream was applied to plaques 1 and 2 at 125 mg/cm^2 twice in 24 hours, corresponding to 50 μg 3,5,3′-triiodothyroacetic acid per cm^2 per 24 hours.
T4A-ointment was applied to plaque 2 concurrently with Triacana® cream at 50 mg/cm^2 twice in 24 hours, corresponding to 50 μg 3,3′,5,5′-tetraiodothyroacetic acid per cm^2 per 24 hours.
D-T4-ointment was applied to plaques 3 and 4 at 50 mg/cm^2 twice in 24 hours, corresponding to 250 μg D-T4, per cm^2 per 24 hours.
T4A-ointment was applied to plaque 4 concurrently with the D-T4-ointment at 50 mg/cm^2 twice in 24 hours corresponding to 50 μg/cm^2 3,3′,5,5′-tetraiodothyroacetic acid per cm^2 per 24 hours.
Treatment was continued in this manner for 35 days.

psoriatic plaques [2] = assay: Continuation of the therapeutic trial from 35 days onward (to 70 days); format: in vivo, human; settings: for change (reduction) in plaque area: from day 35: plaque 2 (earlier Daivonex) no treatment, plaque 3 (earlier T4A) Locobase, plaque 4 (earlier T4A+T4) T4 ointment 5 μg/cm^2/24 h; for effect on psoriatic rash (in words): topically applied
Protocol: The therapeutic trial was continued from 35 days onward as follows:
Locobase® ointment containing […], T4, per gram (University Pharmacy, Helsinki, Finland).
As previously, the ointments were applied to the target plaques at 50 mg/cm^2 twice in 24 hours. Thus, the dose of T4 to plaque 4 was 5 μg T4 per cm^2 per 24 hours.

psoriatic plaques [3] = assay: Topical treatment of psoriatic plaques in a psoriatic patient, 35 days; format: in vivo, human; settings: for change (reduction) in plaque area: ointment 50 mg/cm^2 twice in 24 hours
Excerpt: Simultaneous topical treatment of four untreated, typically scaling and sharply demarcated dermatitic plaques ([…]) in a psoriatic patient was undertaken. Plaque 5 was left untreated for comparison.
The areas of the plaques at initiation of the treatment were as follows: plaque 1: 8.7 cm^2; plaque 2: 8.1 cm^2; plaque 3: 6.8 cm^2; plaque 4: 6.1 cm^2; plaque 5: 6.4 cm^2.
The following ointments were applied to plaques 1-4:
Locobase.RTM. unctuous cream (Yamanouchi Europe B. V., Leiderup, Holland).
Daivonex.RTM. calcipotriol ointment containing 50µg calcipotriol per gram (L.o slashed.vens Kemiske Fabrik, Ballerup, Denmark).
Locobase.RTM.D unctuous cream containing 500µg 3,3′,5,5′-tetraiodothyroacetic acid, T4A, per gram (University Pharmacy, Helsinki, Finland).
Locobase.RTM. unctuous cream containing 500 μg T4A per gram and […], T4, per gram (University Pharmacy, Helsinki, Finland).
Each ointment was applied to the plaques at 50 mg/cm^2 twice in 24 hours, corresponding to 5µg calcipotriol per cm^2 per 24 hours for plaque 2, 50 μg T4A per cm^2 per 24 hours for plaques 3 and 4, and 5 μg T4 per cm^2 per 24 hours for plaque 4. Treatment was continued in this manner for 35 days.
The results are presented in Table 1 below, showing the change (reduction) in plaque area with time (days).

psoriatic plaque = assay: Topical T4P ointment on a previously untreated psoriatic plaque; format: in vivo, human; settings: T4P 25 μg/cm^2 twice per 24 hours for 35 days; follow-up 42 days
Protocol: The topical effect of T4P, 3,3′,5,5′-tetraiodothyropropionic acid ointment on a previously untreated psoriatic plaque, on psoriasis was studied in a therapeutic design identical with the above. The dosage of T4P was 25 μg/cm^2 twice per 24 hours for 35 days. The follow-up period was 42 days. […] Effect of 3,3′,5,5′-tetraiodothyropropionic acid (T4P) ointment on a previously untreated psoriatic plaque. The dosage of T4P was 25 μg/cm^2 twice per 24 hours for 35 days. The follow-up period was 42 days.

psoriasis = settings: topical calcipotriol therapy; cited from earlier work

For N[C@H](Cc1cc(I)c(Oc2cc(I)c(O)c(I)c2)c(I)c1)C(=O)O [D-T4, D-thyroxine], which “thyroid hormone activity relative to T4” value (thyroid hormone activity) is on record?
Its value is “substantially less thyroid hormone activity than T4”.

And the “changes in the area or appearance of the plaque during the whole treatment period” value (psoriatic plaques [1]; 35 days, T3A 50 μg/cm^2/24 h or D-T4 250 μg/cm^2/24 h alone)?
The value was “no visible changes”.

What about the “effect on psoriatic rash (conclusions, in words)” value (“effect … (conclusions, in words)” below) (psoriatic plaques [1]) of the same compound?
The value was “did not have any visible effect”.

Which “thyroid hormone activity relative to T4” value (thyroid hormone activity) does the source give for N[C@@H](Cc1cc(I)c(Oc2ccc(O)c(I)c2)c(I)c1)C(=O)O [T3, 3,3′,5-triiodo-L-thyronine, reference compound] here?
The value was “five times that of T4”.

Which “effect … (conclusions, in words)” value (psoriatic plaques [1]) does the source give for O=C(O)Cc1cc(I)c(Oc2ccc(O)c(I)c2)c(I)c1 [T3A, 3,5,3′-triiodothyroacetic acid] here?
The value was “did not have any visible effect”.

Which results are given for N[C@@H](Cc1cc(I)c(Oc2cc(I)c(O)c(I)c2)c(I)c1)C(=O)O [T4, 3,3′,5,5′-tetraiodo-L-thyronine, reference compound]?
change (reduction) in plaque area (psoriatic plaques [2]; 42 days): 70%; change (reduction) in plaque area (psoriatic plaques [2]; 50 days): 25%; change (reduction) in plaque area (psoriatic plaques [2]; 62 days): -10%; change (reduction) in plaque area (psoriatic plaques [2]; 70 days): −50% ^; increase of the area of plaque 4 compared with baseline (psoriatic plaques [2]; T4 ointment 5 μg/cm^2/24 h from day 35 to day 70, plaque previously treated with T4A+T4): 50%; effect on psoriatic rash (in words) (psoriatic plaques [2]): worsened

Which “change (reduction) in plaque area” value (psoriatic plaques [3]; 14 days) does the source give for O=C(O)Cc1cc(I)c(Oc2cc(I)c(O)c(I)c2)c(I)c1 [T4A, 3,3′,5,5′-tetraiodothyroacetic acid] here?
The value was 45%.

What about the “change (reduction) in plaque area” value (psoriatic plaques [3]; 21 days) of the same compound?
Its value is 65%.

What about the “change (reduction) in plaque area” value (psoriatic plaques [3]; 28 days) of the same compound?
The value was 85%.

And the “effect on psoriatic plaques (in words)” value (psoriatic plaques [3]; 35 days topical treatment)?
The value was “clear effect”.

And the “therapeutic efficacy in terms of reduction in plaque area, compared with calcipotriol ointment” value (psoriatic plaques [3]; 35 days topical treatment)?
Its value is “better than that of the calcipotriol ointment”.

And the “change (reduction) in plaque area” value (psoriatic plaques [3]; 35 days)?
The value was 90%.

What about the “thyroid hormone activity relative to T4” value (thyroid hormone activity) of the same compound?
Its value is “about one-fourth”.

What about the “change (reduction) in plaque area” value (psoriatic plaques [2]; 42 days) of the same compound?
Its value is 95%.

What about the “change (reduction) in plaque area” value (psoriatic plaques [2]; 50 days) of the same compound?
Its value is 95%.

What about the “change (reduction) in plaque area” value (psoriatic plaques [2]; 62 days) of the same compound?
The value was 90%.

And the “change (reduction) in plaque area” value (psoriatic plaques [2]; 70 days)?
Its value is 80%.

And the “inhibition of the rash-worsening effect of T4” value (psoriatic plaques [2]; topical T4A 50 μg/cm^2/24 h with T4 5 μg/cm^2/24 h)?
The value was “completely inhibits this effect”.

And the “effect on psoriatic rash (in words)” value (psoriatic plaques [2])?
Its value is “therapeutically efficacious”.

And the “effect … (conclusions, in words)” value (psoriatic plaques [1])?
The value was “separate and prominent antipsoriatic effect”.

For O=C(O)CCc1cc(I)c(Oc2cc(I)c(O)c(I)c2)c(I)c1 [T4P, 3,3′,5,5′-tetraiodothyropropionic acid], which “thyroid hormone activity relative to T4” value (thyroid hormone activity) is on record?
Its value is “about one-fourth”.

What about the “inhibition of the effects of T4” value (psoriatic plaque) of the same compound?
Its value is “completely inhibit the effects of T4”.

And the “therapeutic efficacy compared with T4A” value (psoriatic plaque)?
Its value is “equal to T4A in therapeutic efficacy”.

With C=C1/C(=C\C=C2/CCC[C@]3(C)[C@@H]([C@H](C)/C=C/[C@@H](O)C4CC4)CC[C@@H]23)C[C@@H](O)C[C@@H]1O [calcipotriol] as the compound, how does the “complete removal of dermatitic plaques, share of cases” value (psoriasis) read?
Its value is “about 15%”.
